# Measured values published in article PMC12843386, “Ly6/uPAR Protein from Asterias rubens Starfish Stimulates Migration and Invasion of Human Epithelial and Immune Cells” (Marine Drugs, 2025).
# Where two headings read alike, the source gives them in different places. Bridges are numbered along the chain shown (N, C = ends). Where no end group is shown, it is not given here.
# How the values were obtained:
# HaCaT keratinocytes = assay: Wound-healing (scratch) assay, collective migration of HaCaT keratinocytes; assay type: cell-based, human; settings: 10 µM peptide, 24 h, serum-free; % of untreated control; n = 14 (Figure 4a,b)
# Protocol: Human HaCaT keratinocytes (ATCC, Manassas, VA, USA) were grown (37 °C, 8% CO2) in a DME medium with phenol red (PanEco, Moscow, Russia), 10% fetal calf serum (Thermo Fisher Scientific, Waltham, […], USA), and 2 mM L-glutamine (PanEco). Human peripheral blood monocytes were isolated from human donors’ blood (informed written consent was obtained from the donors) with Lymphosep media (MP Biomedicals, Irvine, CA, USA) and cultivated in RPMI-1640 medium with phenol red (PanEco, Russia), 10% fetal calf serum (Thermo Fisher Scientific), and 2 mM L-glutamine (PanEco). All cells were routinely tested for the absence of mycoplasma contamination (Mycoreport kit, Evrogen, Moscow, Russia).
# The in vitro wound healing (scratch) assay was performed as described in [35]. In brief, HaCaT cells were seeded in 96-well cell culture plates (5 × 10^4 cells/well) and grown for 24 h. […] Pictures were analyzed after 0 and 24 h at 20× magnification at CloneSelect Imager (Molecular Devices, San Jose, CA, USA). The center of the plate was marked as a central reference point to ensure that the same area was recorded during the time course. Digital images were taken, and the scratch area was quantified using ImageJ 1.54f software (NIH, Bethesda, MD, USA) and MS Excel 365 (Microsoft, Redmond, WA, USA) software by measuring the % of the scratch surface occupied by migrating cells.
# [1] = ELISA binding to immobilized membrane fraction of A. rubens arm tip; design: species or system Asterias rubens; settings: detection by anti-Lystar5 serum, n = 4 (Figure 3b)
# Excerpt: Figure 2 Design of the peptides mimicking the loop and “head” regions of Lystar5 and ELISA experiments. (a) Amino acid sequence alignment of Lystar5 and the peptides: loop I (rose), loop II (orange), loop III (blue), and head (green). Cys residues are shown in gold. Disulfide bonds are shown in brackets. Sequences of the peptides are highlighted by colors corresponding to the Lystar5 loops. The amino acids changed to increase the peptides’ stability are designated by lowercase letters. (b) Spatial structure of Lystar5 predicted from the sequence using ESMFold with regions corresponding to the synthesized peptides colored as shown in panel (a,c). Design of ELISA experiments for proof of detection of Lystar5 and the peptides by the anti-Lystar5 serum of immunized mice (left), identification of the active site of Lystar5, and evaluation of the interaction of Lystar5 and the peptides using the immobilized membrane fraction of different A. rubens tissues (center), and study of complex formation between nAChR and integrin subunits in HaCAT keratinocytes (right). […] Recombinant analogue of Lynx2 was used as a negative control. […] Bound compounds were detected by the anti-Lystar5 serum of immunized mouse. […]
# [2] = cited from earlier work
# Excerpt: Ly6/uPAR proteins from different organisms are currently being considered as prototypes for new drugs.
molecule,measurement,setting,value
"GEDGCTAATTQLGKRYFADKSRPAWGAVECG (disulfide 5-30 (inferred)) [loop III, C-amidated peptide mimicking loop III of Lystar5: […]]","collective migration of HaCaT keratinocytes (scratch assay), wound closure",HaCaT keratinocytes,did not affect the collective migration
"VLKTCTSRQDRCG (disulfide 5-12 (inferred)) [head, C-amidated peptide mimicking the ""head"" region of Lystar5: […]]",binding to the immobilized membrane fraction of the arm tip,[1],neither Lystar5 nor its loops or “head” bound
same,"collective migration of HaCaT keratinocytes (scratch assay), wound closure",HaCaT keratinocytes,did not affect the collective migration
α-cobratoxin,anti-cancer activity,"[2]; snake toxin from Naja kaouthia, ref [45]",effective anti-cancer agents
"Lynx1: human protein Lynx1 found in the nervous system, skin, and lungs (protein, UniProt P0DP58 21-91, looked up) Ly-6/neurotoxin-like protein 1: LDCHVCAYNGDNCFNPMRCPAMVAYCMTTRTYYTPTRMKVSKSCVPRCFETVYDGYSKHASTTSCCQYDLC",anti-cancer activity,"[2]; human protein found in the nervous system, skin, and lungs, ref [47],[48]",effective anti-cancer agents
same,cognitive dysfunctions related to the cholinergic system decline,[2]; ref [49],ameliorates cognitive dysfunctions
"SLURP-1: human-secreted epithelial protein SLURP-1 (protein, UniProt P55000 23-103, looked up) Secreted Ly-6/uPAR-related …: LKCYTCKEPMTSASCRTITRCKPEDTACMTTLVTVEAEYPFNQSPVVTRSCSSSCVATDPDSIGAAHLIFCCFRDLCNSEL",anti-cancer activity,"[2]; human-secreted epithelial protein, ref [46]",effective anti-cancer agents
